# Measurements taken from US9120785B2, “Pyridyl aminopyridines as Syk inhibitors” (Merck Sharp & Dohme Corp., priority 2011, dated 2015).
# Target: recombinant human GST-Syk (Homo sapiens (Human), UniProt P43405)
# Assay: Homogeneous Time-Resolved Fluorescence (HTRF) assay for the recombinant human Syk enzyme
# Type: biochemical
# Conditions: recombinant human GST-Syk 5 pM, ATP 25 μM, 10-dose titration; read-out: rhSyk (nM) IC50
# Summary of the method: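 GST-hSyk (5 pM final) preincubated 10 min at room temperature with inhibitor (0.1% DMSO) in 15 mM Tris-HCl pH 7.5, 0.01% Tween 20, 2 mM DTT. Reaction with 250 nM biotinylated peptide, 5 mM Mg, 25 μM ATP for 45 min, room temperature. Quenched with EDTA; Eu-anti-phosphotyrosine/SA-APC HTRF read after 30 min.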
row,IC50 [nM],SMILES
1,6,"CC1(C)C[C@@H](C(C)(O)c2ncc(-c3cccc(Nc4cc(C(F)F)ccn4)n3)s2)CC[C@@H]1C(=O)O (stereo partly drawn) [Example 14-50, (1S,4S)-4-{1-[5-(6-{[4-(difluoromethyl)pyridin-2-yl]amino}pyridin-2-yl)-1,3-thiazol-2-yl]-1-hydroxyethyl)-2,2-dimethylcyclohexanecarboxylic acid]"

# Same assay, conditions: recombinant human GST-Syk 5 pM, ATP 25 μM; class symbols; read-out: rhSyk activity (IC50)
row,SMILES,IC50 [nM]
1,"Cc1cc(Nc2cc(C(F)(F)F)ccn2)nc(-c2cnc(C(C)(O)C3CCC(C(=O)O)C(C)C3)s2)c1 (single isomer, unassigned) [Example 15-12, 4-{1-hydroxy-1-[5-(4-methyl-6-{[4-(trifluoromethyl)pyridin-2-yl]amino}pyridin-2-yl)-1,3-thiazol-2-yl]ethyl}-2-methylcyclohexanecarboxylic acid]",≤ 100
2,"Cc1cc(Nc2cc(C(F)(F)F)ccn2)nc(-c2cnc(C(C)(O)C3CCC(C(=O)O)C(C)C3)s2)c1 (single isomer, unassigned) [Example 15-13, 4-{1-hydroxy-1-[5-(4-methyl-6-{[4-(trifluoromethyl)pyridin-2-yl]amino}pyridin-2-yl)-1,3-thiazol-2-yl]ethyl}-2-methylcyclohexanecarboxylic acid]",≤ 100
3,"Cc1cc(Nc2cc(C(F)(F)F)ccn2)nc(-c2cnc(C(C)(O)C3CCNC3)s2)c1 (stereo not drawn) [Example 12, 1-[5-(4-Methyl-6-{[4-(trifluoromethyl)pyridin-2-yl]amino}pyridin-2-yl)-1,3-thiazol-2-yl]-1-(pyrrolidin-3-yl)ethanol]",≤ 100
4,"Cc1cc(Nc2cc(C(F)(F)F)ccn2)nc(-c2cnc(C(C)(O)C3CCN(C(N)=O)C3)s2)c1 (stereo not drawn) [Example 13, 3-{1-Hydroxy-1-[5-(4-methyl-6-{[4-(trifluoromethyl)pyridin-2-yl]amino}pyridin-2-yl)-1,3-thiazol-2-yl]ethyl}pyrrolidine-1-carboxamide]",≤ 100
5,"Cc1cc(Nc2cc(C(F)(F)F)ccn2)nc(-c2cnc(C(C)(O)[C@@H]3CC[C@H](C(=O)O)C(C)(C)C3)s2)c1 (stereo partly drawn) [Example 14-30, (1S,4R)-4-{1-hydroxy-1-[5-(4-methyl-6-{[4-(trifluoromethyl)pyridin-2-yl]amino}pyridin-2-yl)-1,3-thiazol-2-yl]ethyl}-2,2-dimethylcyclohexanecarboxylic acid]",≤ 100
6,"Cc1cc(Nc2cc(C(F)(F)F)ccn2)nc(-c2cnc(C(C)(O)[C@H]3CC[C@H](C(=O)O)C(C)(C)C3)s2)c1 (stereo partly drawn) [Example 14-31, (1S,4S)-4-{1-hydroxy-1-[5-(4-methyl-6-{[4-(trifluoromethyl)pyridin-2-yl]amino}pyridin-2-yl)-1,3-thiazol-2-yl]ethyl}-2,2-dimethylcyclohexanecarboxylic acid]",≤ 100
7,"Cc1cc(Nc2cc(C(F)(F)F)ccn2)nc(-c2cnc([C@@](C)(O)[C@H]3CNC(=O)C3)s2)c1 [Example 14-55, (4R)-4-{(1S)-1-hydroxy-1-[5-(4-methyl-6-{[4-(trifluoromethyl)pyridin-2-yl]amino}pyridin-2-yl)-1,3-thiazol-2-yl]ethyl}pyrrolidin-2-one]",≤ 100
8,"Cc1cc(Nc2cc(C(F)(F)F)ccn2)nc(-c2cnc([C@](C)(O)[C@H]3CNC(=O)C3)s2)c1 [Example 14-56, (4R)-4-{(1R)-1-hydroxy-1-[5-(4-methyl-6-{[4-(trifluoromethyl)pyridin-2-yl]amino}pyridin-2-yl)-1,3-thiazol-2-yl]ethyl}pyrrolidin-2-one]",≤ 100
9,"Cc1cc(Nc2cc(C(F)(F)F)ccn2)nc(-c2cnc(C(C)(O)C3CCC(C(=O)O)C(C)C3)s2)c1 (stereo not drawn) [Example 15-14, 4-{1-hydroxy-1-[5-(4-methyl-6-{[4-(trifluoromethyl)pyridin-2-yl]amino}pyridin-2-yl)-1,3-thiazol-2-yl]ethyl}-2-methylcyclohexanecarboxylic acid]",≤ 100
10,"Cc1cc(Nc2cc(C(F)(F)F)ccn2)nc(-c2cnc(C(C)(O)C3CCC(C(=O)O)C(C)C3)s2)c1 (stereo not drawn) [Example 15-15, 4-{1-hydroxy-1-[5-(4-methyl-6-{[4-(trifluoromethyl)pyridin-2-yl]amino}pyridin-2-yl)-1,3-thiazol-2-yl]ethyl}-2-methylcyclohexanecarboxylic acid]",≤ 100
11,"Cc1cc(Nc2cc(C(F)(F)F)ccn2)nc(-c2cnc(C(C)(O)C3CCC(C(=O)O)C(C)C3)s2)c1 (stereo not drawn) [Example 15-16, 4-{1-hydroxy-1-[5-(4-methyl-6-{[4-(trifluoromethyl)pyridin-2-yl]amino}pyridin-2-yl)-1,3-thiazol-2-yl]ethyl}-2-methylcyclohexanecarboxylic acid]",≤ 100
12,"Cc1cc(Nc2cc(C(F)(F)F)ccn2)nc(-c2cnc(C(C)(O)C3CCC(C(=O)O)C(C)C3)s2)c1 (stereo not drawn) [Example 15-17, 4-{1-hydroxy-1-[5-(4-methyl-6-{[4-(trifluoromethyl)pyridin-2-yl]amino}pyridin-2-yl)-1,3-thiazol-2-yl]ethyl}-2-methylcyclohexanecarboxylic acid]",≤ 100

# Other lines, results leading:
row,IC50 [nM],SMILES
1,≤ 100,"Cc1cc(Nc2cc(C(F)(F)F)ccn2)nc(-c2cnc(C(C)(O)[C@H]3CC[C@H](C(=O)O)C(C)(C)C3)s2)c1 (stereo partly drawn) [Example 14-32, (1S,4S)-4-{1-hydroxy-1-[5-(4-methyl-6-{[4-(trifluoromethyl)pyridin-2-yl]amino}pyridin-2-yl)-1,3-thiazol-2-yl]ethyl}-2,2-dimethylcyclohexanecarboxylic acid]"
2,≤ 100,"Cc1ccnc(Nc2cc(C)cc(-c3cnc(C(C)(O)[C@H]4CC[C@H](C(=O)O)C(C)(C)C4)s3)n2)c1 (stereo partly drawn) [Example 14-33, (1S,4S)-4-[1-hydroxy-1-(5-{4-methyl-6-[(4-methylpyridin-2-yl)amino]pyridin-2-yl}-1,3-thiazol-2-yl)ethyl]-2,2-dimethylcyclohexanecarboxylic acid]"
3,≤ 100,"Cc1ccnc(Nc2cc(C)cc(-c3cnc(C(C)(O)[C@H]4CC[C@H](C(=O)O)C(C)(C)C4)s3)n2)c1 (stereo partly drawn) [Example 14-34, (1S,4S)-4-[1-hydroxy-1-(5-{4-methyl-6-[(4-methylpyridin-2-yl)amino]pyridin-2-yl}-1,3-thiazol-2-yl)ethyl]-2,2-dimethylcyclohexanecarboxylic acid]"
4,≤ 100,"COc1ccnc(Nc2cc(C)cc(-c3cnc(C(C)(O)[C@H]4CC[C@H](C(=O)O)C(C)(C)C4)s3)n2)c1 (stereo partly drawn) [Example 14-35, (1S,4S)-4-[1-hydroxy-1-(5-{6-[(4-methoxypyridin-2-yl)amino]-4-methylpyridin-2-yl}-1,3-thiazol-2-yl)ethyl]-2,2-dimethylcyclohexanecarboxylic acid]"
5,≤ 100,"COc1ccnc(Nc2cc(C)cc(-c3cnc(C(C)(O)[C@H]4CC[C@H](C(=O)O)C(C)(C)C4)s3)n2)c1 (stereo partly drawn) [Example 14-36, (1S,4S)-4-[1-hydroxy-1-(5-{6-[(4-methoxypyridin-2-yl)amino]-4-methylpyridin-2-yl}-1,3-thiazol-2-yl)ethyl]-2,2-dimethylcyclohexanecarboxylic acid]"
6,≤ 100,"Cc1cc(Nc2cc(C(F)F)ccn2)nc(-c2cnc(C(C)(O)[C@H]3CC[C@H](C(=O)O)C(C)(C)C3)s2)c1 (stereo partly drawn) [Example 14-37, (1S,4S)-4-{1-[5-(6-{[4-(difluoromethyl)pyridin-2-yl]amino}-4-methylpyridin-2-yl)-1,3-thiazol-2-yl]-1-hydroxyethyl}-2,2-dimethylcyclohexanecarboxylic acid]"
7,≤ 100,"Cc1cc(Nc2cc(C(F)F)ccn2)nc(-c2cnc(C(C)(O)[C@H]3CC[C@H](C(=O)O)C(C)(C)C3)s2)c1 (stereo partly drawn) [Example 14-38, (1S,4S)-4-{1-[5-(6-{[4-(difluoromethyl)pyridin-2-yl]amino}-4-methylpyridin-2-yl)-1,3-thiazol-2-yl]-1-hydroxyethyl}-2,2-dimethylcyclohexanecarboxylic acid]"
8,≤ 100,"CC1(C)C[C@@H](C(C)(O)c2ncc(-c3cccc(Nc4cc(C(F)(F)F)ccn4)n3)s2)CC[C@@H]1C(=O)O (stereo partly drawn) [Example 14-44, (1S,4S)-4-{1-hydroxy-1-[5-(6-{[4-(trifluoromethyl)pyridin-2-yl]amino}pyridin-2-yl)-1,3-thiazol-2-yl]ethyl}-2,2-dimethylcyclohexanecarboxylic acid]"
9,≤ 100,"CC1(C)C[C@@H](C(C)(O)c2ncc(-c3cccc(Nc4cc(C(F)(F)F)ccn4)n3)s2)CC[C@@H]1C(=O)O (stereo partly drawn) [Example 14-45, (1S,4S)-4-{1-hydroxy-1-[5-(6-{[4-(trifluoromethyl)pyridin-2-yl]amino}pyridin-2-yl)-1,3-thiazol-2-yl]ethyl}-2,2-dimethylcyclohexanecarboxylic acid]"
10,≤ 100,"Cc1ccnc(Nc2cccc(-c3cnc(C(C)(O)[C@H]4CC[C@H](C(=O)O)C(C)(C)C4)s3)n2)c1 (stereo partly drawn) [Example 14-46, (1S,4S)-4-[1-hydroxy-1-(5-{6-[(4-methylpyridin-2-yl)amino]pyridin-2-yl}-1,3-thiazol-2-yl)ethyl]-2,2-dimethylcyclohexanecarboxylic acid]"
11,≤ 100,"Cc1ccnc(Nc2cccc(-c3cnc(C(C)(O)[C@H]4CC[C@H](C(=O)O)C(C)(C)C4)s3)n2)c1 (stereo partly drawn) [Example 14-47, (1S,4S)-4-[1-hydroxy-1-(5-{6-[(4-methylpyridin-2-yl)amino]pyridin-2-yl}-1,3-thiazol-2-yl)ethyl]-2,2-dimethylcyclohexanecarboxylic acid]"
12,≤ 100,"COc1ccnc(Nc2cccc(-c3cnc(C(C)(O)[C@H]4CC[C@H](C(=O)O)C(C)(C)C4)s3)n2)c1 (stereo partly drawn) [Example 14-48, (1S,4S)-4-[1-hydroxy-1-(5-{6-[(4-methoxypyridin-2-yl)amino]pyridin-2-yl}-1,3-thiazol-2-yl)ethyl]-2,2-dimethylcyclohexanecarboxylic acid]"
13,≤ 100,"COc1ccnc(Nc2cccc(-c3cnc(C(C)(O)[C@H]4CC[C@H](C(=O)O)C(C)(C)C4)s3)n2)c1 (stereo partly drawn) [Example 14-49, (1S,4S)-4-[1-hydroxy-1-(5-{6-[(4-methoxypyridin-2-yl)amino]pyridin-2-yl}-1,3-thiazol-2-yl)ethyl]-2,2-dimethylcyclohexanecarboxylic acid]"
14,≤ 100,"CC1(C)C[C@@H](C(C)(O)c2ncc(-c3cccc(Nc4cc(C(F)F)ccn4)n3)s2)CC[C@@H]1C(=O)O (stereo partly drawn) [Example 14-50, (1S,4S)-4-{1-[5-(6-{[4-(difluoromethyl)pyridin-2-yl]amino}pyridin-2-yl)-1,3-thiazol-2-yl]-1-hydroxyethyl)-2,2-dimethylcyclohexanecarboxylic acid]"
